Experimental findings from patent publication US8513251B2, “Pyridazinone compounds” (Takeda Pharmaceutical Company Limited, priority 2009, dated 2013) are described below.

The target in the first series is T1, Human PDE10A enzyme (Homo sapiens, UniProt Q9Y233).
T1 construct: Human PDE10A enzyme was generated from Sf9 or COS-7 cells transfected with the full-length gene; His-tag; made in house; host or cells: Sf9 or COS-7 cells
T1 sequence (Q9Y233 267-1055): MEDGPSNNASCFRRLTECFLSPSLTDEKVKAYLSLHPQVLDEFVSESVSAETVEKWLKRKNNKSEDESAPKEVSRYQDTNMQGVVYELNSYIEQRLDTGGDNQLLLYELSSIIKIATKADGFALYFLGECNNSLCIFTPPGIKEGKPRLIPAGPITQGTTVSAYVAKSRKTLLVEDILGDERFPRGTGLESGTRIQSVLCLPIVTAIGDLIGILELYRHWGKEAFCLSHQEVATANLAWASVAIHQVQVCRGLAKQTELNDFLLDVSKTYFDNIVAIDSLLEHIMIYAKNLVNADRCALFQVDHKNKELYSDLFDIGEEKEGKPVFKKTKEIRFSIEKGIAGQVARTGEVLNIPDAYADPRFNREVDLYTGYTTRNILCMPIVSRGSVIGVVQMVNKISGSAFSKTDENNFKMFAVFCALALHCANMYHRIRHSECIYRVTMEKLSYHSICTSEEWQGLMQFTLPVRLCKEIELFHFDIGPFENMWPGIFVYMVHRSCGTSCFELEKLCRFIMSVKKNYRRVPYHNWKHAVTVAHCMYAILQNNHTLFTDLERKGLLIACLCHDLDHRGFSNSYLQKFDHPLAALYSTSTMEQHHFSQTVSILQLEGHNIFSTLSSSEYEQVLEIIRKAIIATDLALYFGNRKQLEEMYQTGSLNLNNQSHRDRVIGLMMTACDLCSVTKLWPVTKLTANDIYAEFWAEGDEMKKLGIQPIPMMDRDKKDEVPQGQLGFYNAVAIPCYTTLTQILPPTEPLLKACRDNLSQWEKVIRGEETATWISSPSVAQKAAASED
Nature of the series: PDE enzyme inhibition, SPA (Scintillation Proximity Assay). It is filed as biochemical. The settings on record: Table 2; compound at 0.1 μM; read-out: Percent inhibition (0.1 μM). Here is the method:
Human PDE10A enzyme was generated from Sf9 or COS-7 cells transfected with the full-length gene. Cloned enzyme was extracted from homogenized cell pellets. The extracted enzyme from Sf9 cells was partially purified using His-tag affinity column. The enzyme was stored at −70° C. until use. PDE activity was measured using a SPA (Scintillation Proximity Assay) (GE Healthcare). To evaluate the inhibitory activity, 10 μL of serial diluted compounds were incubated with 20 μL of PDE enzyme in assay buffer (50 mM HEPES-NaOH, 8.3 mM MgCl2, 1.7 mM EGTA, 0.1% BSA (pH 7.4)) for 30 min. at room temperature. Final concentration of DMSO in the assay was 1 percent as compounds were tested in duplicate in 96-well half-area plates (Corning). To start the reaction, 10 μL of substrate [3H] cGMP (25 or 50 nM; enclosed in SPA kits from GE Healthcare or purchased from PerkinElmer, respectively) was added for a final assay volume of 40 μL. After 60 min incubation at room temperature, yttrium SPA beads containing Zinc sulphate were added (20 μL at 6 mg/mL) to terminate the PDE reaction. After being settled for 60 min., assay plates were counted in a scintillation counter (PerkinElmer) to allow calculation of inhibition rate and IC50. Inhibition rate was calculated on the basis of 0% control wells with DMSO and 100% control wells without enzyme.
Consider `COc1cn(-c2ccc(N3CC(C)(C)CC3=O)cc2F)nc(-c2ccnn2-c2ccccc2)c1=O` [Example 189, 1-[4-(4,4-Dimethyl-2-oxopyrrolidin-1-yl)-2-fluorophenyl]-5-methoxy-3-(1-phenyl-1H-pyrazol-5-yl)pyridazin-4(1H)-one], for which the inhibition at 0.1 µM stood at 100%.

The same series, now with this note: Table 2; human PDE10A, [3H]cGMP substrate.
As for `COc1cn(-c2ccc(N3CC(C)(C)CC3=O)cc2F)nc(-c2ccnn2-c2ccccc2)c1=O` [Example 189, 1-[4-(4,4-Dimethyl-2-oxopyrrolidin-1-yl)-2-fluorophenyl]-5-methoxy-3-(1-phenyl-1H-pyrazol-5-yl)pyridazin-4(1H)-one], the half-inhibitory concentration (IC50) was < 10 nM.

Tested on in another series: not given
Assay: not given
Conditions: not given
`O=c1ccn(-c2ccc(Cl)cc2)nc1-c1ccnn1-c1ccccc1` [Example 18, 1-(4-Chlorophenyl)-3-(1-phenyl-1H-pyrazol-5-yl)pyridazin-4(1H)-one]: the melting point was 219 to 220 °C.
Still for that read-out and setting: as for `Cc1cnn(-c2ccccc2)c1-c1nn(-c2cccc(C(F)(F)F)c2)ccc1=O` [Example 71, 3-(4-Methyl-1-phenyl-1H-pyrazol-5-yl)-1-[3-(trifluoromethyl)phenyl]pyridazin-4(1H)-one], the figure is 208 to 211 °C; as for `O=c1ccn(-c2ccccc2C(F)(F)F)nc1-c1ccnn1-c1ccccc1` [Example 22, 3-(1-Phenyl-1H-pyrazol-5-yl)-1-[2-(trifluoromethyl)phenyl]pyridazin-4(1H)-one], 145 to 146 °C.
Still for that read-out and setting: the result for `CC(C)Oc1cn(-c2cccc(C(F)(F)F)c2)nc(-c2ccnn2-c2ccccc2)c1=O` [Example 60, 5-(1-Methylethoxy)-3-(1-phenyl-1H-pyrazol-5-yl)-1-[3-(trifluoromethyl)phenyl]pyridazin-4(1H)-one] reads 137 to 139 °C; that for `Cc1nnc(-c2nn(-c3cccc(C(F)(F)F)c3)ccc2=O)n1-c1ccccc1` [Example 41, 3-(5-Methyl-4-phenyl-4H-1,2,4-triazol-3-yl)-1-[3-(trifluoromethyl)phenyl]pyridazin-4(1H)-one], 191 to 192 °C.
Turning to `O=c1ccn(-c2cccc(C(F)(F)F)c2)nc1-c1nncn1-c1ccccc1` [Example 40, 3-(4-Phenyl-4H-1,2,4-triazol-3-yl)-1-[3-(trifluoromethyl)phenyl]pyridazin-4(1H)-one], the melting point fell in the range of 103 to 104 °C.
Molecule `O=c1ccn(-c2ccc(OC(F)F)cc2)nc1-c1ccnn1-c1ccccc1` [Example 28, 1-[4-(Difluoromethoxy)phenyl]-3-(1-phenyl-1H-pyrazol-5-yl)pyridazin-4(1H)-one] returned a melting point of 175 to 176 °C.
The same measure, in the same setting: the result for `COc1cccc(-n2ccc(=O)c(-c3ccnn3-c3ccccc3)n2)c1` [Example 21, 1-(3-Methoxyphenyl)-3-(1-phenyl-1H-pyrazol-5-yl)pyridazin-4(1H)-one] reads 110 to 111 °C; that for `O=c1ccn(-c2cccc(C(F)(F)F)c2)nc1-c1ccnn1-c1cccc(F)c1` [Example 6, 3-[1-(3-Fluorophenyl)-1H-pyrazol-5-yl]-1-[3-(trifluoromethyl)phenyl]pyridazin-4(1H)-one], 104 to 105 °C; that for `O=c1ccn(-c2cccc(C(F)(F)F)c2)nc1-c1ccnn1-c1ccc(F)cc1` [Example 2, 3-[1-(4-Fluorophenyl)-1H-pyrazol-5-yl]-1-[3-(trifluoromethyl)phenyl]pyridazin-4(1H)-one], 130 to 131 °C.
The molecule `Cc1cc(-c2nn(-c3cccc(C(F)(F)F)c3)ccc2=O)n(-c2ccccc2)n1` [Example 51, 3-(3-Methyl-1-phenyl-1H-pyrazol-5-yl)-1-[3-(trifluoromethyl)phenyl]pyridazin-4(1H)-one] had a melting point of 167 to 168 °C.
On the same count and under the same terms, the result for `Cc1ccc(-n2ccc(=O)c(-c3ccnn3-c3ccccc3)n2)cc1` [Example 25, 1-(4-Methylphenyl)-3-(1-phenyl-1H-pyrazol-5-yl)pyridazin-4(1H)-one] reads 182 to 183 °C; that for `COc1ccc(Cn2nccc2-c2nn(-c3cccc(C(F)(F)F)c3)ccc2=O)cc1` [Example 154, 3-[1-(4-Methoxybenzyl)-1H-pyrazol-5-yl]-1-[3-(trifluoromethyl)phenyl]pyridazin-4(1H)-one], 159 to 161 °C; that for `COc1cn(-c2cc3c(cc2F)OC(F)(F)C(F)(F)O3)nc(-c2ccnn2-c2ccccc2)c1=O` [Example 96, 5-Methoxy-1-(2,2,3,3,7-pentafluoro-2,3-dihydro-1,4-benzodioxin-6-yl)-3-(1-phenyl-1H-pyrazol-5-yl)pyridazin-4(1H)-one], 192 to 194 °C.
Still for that read-out and setting: as for `O=c1c(OCC2CC2)cn(-c2cccc(C(F)(F)F)c2)nc1-c1ccnn1-c1ccccc1` [Example 61, 5-(Cyclopropylmethoxy)-3-(1-phenyl-1H-pyrazol-5-yl)-1-[3-(trifluoromethyl)phenyl]pyridazin-4(1H)-one], the figure is 72 to 78 °C; as for `COc1cn(-c2ccc(OCc3ccccc3)cc2F)nc(-c2ccnn2-c2ccccc2)c1=O` [Example 68, 1-[4-(Benzyloxy)-2-fluorophenyl]-5-methoxy-3-(1-phenyl-1H-pyrazol-5-yl)pyridazin-4(1H)-one], 181 to 183 °C; as for `COc1cn(-c2ccc(O)cc2F)nc(-c2ccnn2-c2ccccc2)c1=O` [Example 91, 1-(2-Fluoro-4-hydroxyphenyl)-5-methoxy-3-(1-phenyl-1H-pyrazol-5-yl)pyridazin-4(1H)-one], 223 to 224 °C.
Same read-out and setting: as for `COc1cn(-c2cc(N3CCCC3=O)ccc2F)nc(-c2ccnn2-c2ccccc2)c1=O` [Example 182, 1-[2-Fluoro-5-(2-oxopyrrolidin-1-yl)phenyl]-5-methoxy-3-(1-phenyl-1H-pyrazol-5-yl)pyridazin-4(1H)-one], the figure is 171 to 174 °C.
With `COc1cn(-c2ccc(-c3c(C)noc3C)cc2F)nc(-c2ccnn2-c2ccccc2)c1=O` [Example 112, 1-[4-(3,5-Dimethylisoxazol-4-yl)-2-fluorophenyl]-5-methoxy-3-(1-phenyl-1H-pyrazol-5-yl)pyridazin-4(1H)-one], the melting point fell in the range of 200 to 202 °C.
As for `Cn1ncc(-c2nn(-c3cccc(C(F)(F)F)c3)ccc2=O)c1-c1ccccc1` [Example 75, 3-(1-Methyl-5-phenyl-1H-pyrazol-4-yl)-1-[3-(trifluoromethyl)phenyl]pyridazin-4(1H)-one], the melting point fell in the range of 193 to 195 °C.
Turning to `CC(C)n1ncc(-c2nn(-c3cccc(C(F)(F)F)c3)ccc2=O)c1-c1ccccc1` [Example 78, 3-[1-(1-Methylethyl)-5-phenyl-1H-pyrazol-4-yl]-1-[3-(trifluoromethyl)phenyl]pyridazin-4(1H)-one], the melting point lay in the range of 183 to 186 °C.
Consider `COc1cn(-c2cccc3c2OC(F)(F)O3)nc(-c2ccnn2-c2ccccc2)c1=O` [Example 90, 1-(2,2-Difluoro-1,3-benzodioxol-4-yl)-5-methoxy-3-(1-phenyl-1H-pyrazol-5-yl)pyridazin-4(1H)-one], for which the melting point fell in the range of 181 to 183 °C.
On the same count and under the same terms, as for `O=c1ccn(-c2cccc(C(F)(F)F)c2)nc1-n1ccnc1-c1ccccc1` [Example 81, 3-(2-Phenyl-1H-imidazol-1-yl)-1-[3-(trifluoromethyl)phenyl]pyridazin-4(1H)-one], the figure is 204 to 205 °C; as for `Cc1ccc(-n2nccc2-c2nn(-c3cccc(C(F)(F)F)c3)ccc2=O)cc1` [Example 1, 3-[1-(4-Methylphenyl)-1H-pyrazol-5-yl]-1-[3-(trifluoromethyl)phenyl]pyridazin-4(1H)-one], 164 to 165 °C; as for `O=c1ccn(-c2cccc(C(F)(F)F)c2)nc1-c1conc1-c1ccccc1` [Example 79, 3-(3-Phenylisoxazol-4-yl)-1-[3-(trifluoromethyl)phenyl]pyridazin-4(1H)-one], 217 to 219 °C.
Still for that read-out and setting: as for `COCc1cn(-c2cccc(C(F)(F)F)c2)nc(-c2ccnn2-c2ccccc2)c1=O` [Example 66, 5-(Methoxymethyl)-3-(1-phenyl-1H-Pyrazol-5-yl)-1-[3-(trifluoromethyl)phenyl]pyridazin-4(1H)-one], the figure is 137 to 139 °C; as for `O=c1c(O)cn(-c2cccc(C(F)(F)F)c2)nc1-c1ccnn1-c1ccccc1` [Example 58, 5-Hydroxy-3-(1-phenyl-1H-pyrazol-5-yl)-1-[3-(trifluoromethyl)phenyl]pyridazin-4(1H)-one], 246 to 248 °C.
Still for that read-out and setting: the result for `COc1cc(=O)c(-c2ccnn2-c2ccccc2)nn1-c1cccc(C(F)(F)F)c1` [Example 193, 6-Methoxy-3-(1-phenyl-1H-pyrazol-5-yl)-1-[3-(trifluoromethyl)phenyl]pyridazin-4(1H)-one] reads 139 to 141 °C; that for `COc1cn(-c2ccc(I)cc2F)nc(-c2ccnn2-c2ccccc2)c1=O` [Example 55, 1-(2-Fluoro-4-iodophenyl)-5-methoxy-3-(1-phenyl-1H-pyrazol-5-yl)pyridazin-4(1H)-one], 194 to 196 °C.
Molecule `COc1ccc(-n2nccc2-c2nn(-c3cccc(C(F)(F)F)c3)ccc2=O)cc1` [Example 4, 3-[1-(4-Methoxyphenyl)-1H-pyrazol-5-yl]-1-[3-(trifluoromethyl)phenyl]pyridazin-4(1H)-one] showed a melting point of 173 to 174 °C.
On the same count and under the same terms, the result for `O=c1ccn(-c2ccc(C(F)(F)F)cc2)nc1-c1ccnn1-c1ccccc1` [Example 11, 3-(1-Phenyl-1H-pyrazol-5-yl)-1-[4-(trifluoromethyl)phenyl]pyridazin-4(1H)-one] reads 237 to 238 °C.
